The values that follow come from paper PMC9784689, “Bioactivity Profiling of In Silico Predicted Linear Toxins from the Ants Myrmica rubra and Myrmica ruginodis” (Toxins, 2022).

Read-outs that look alike come from different tables or passages of the source. No end group written: not given here.

Data set [1] relates to Escherichia coli DE3 (BL21(DE3)). The data set is classed as cell-based. The following applies: 20 µL per dilution from 48 h MIC experiments plated on TSA, n = 2.
The test system of data set [2] is Staphylococcus epidermidis (ATCC 35984; DSM 28319). The data set is classed as cell-based. The following applies: 20 µL per dilution from 48 h MIC experiments plated on TSA, n = 2.
Data set [3] concerns Micrococcus luteus (DSM 20030). The format is cell-based. Conditions: 20 µL per dilution from 48 h MIC experiments plated on TSA, n = 2.
Data set [4] has as its system Listeria monocytogenes (DSM 20600). The format is cell-based. The following applies: 20 µL per dilution from 48 h MIC experiments plated on TSA, n = 2.
Data set [5] relates to MDCK II cells. The following applies: MDCK II cells, 100 µM, 1% DMSO, 48 h, CellTiter-Glo luminescence, triplicate.
For data set [6], the system named is Escherichia coli DE3 (BL21(DE3)). Conditions: E. coli, 100 µM, after 48 h, MH II medium, 37 °C, OD600 normalized to untreated bacteria, triplicate.
The test system of data set [7] is Staphylococcus aureus (DSM 2569). Conditions: S. aureus, 100 µM, after 48 h, MH II medium, 37 °C, OD600 normalized to untreated bacteria, triplicate.
Data set [8] relates to Staphylococcus epidermidis (ATCC 35984; DSM 28319). Conditions: S. epidermidis, 100 µM, after 48 h, MH II medium, 37 °C, OD600 normalized to untreated bacteria, triplicate.
Data set [9] has as its system Micrococcus luteus (DSM 20030). Conditions: M. luteus, 100 µM, after 48 h, MH II medium, 37 °C, OD600 normalized to untreated bacteria, triplicate.
Data set [10] relates to Listeria monocytogenes (DSM 20600). The following applies: L. monocytogenes, 100 µM, after 48 h, MH II medium, 37 °C, OD600 normalized to untreated bacteria, triplicate.
Data set [11] deals with Escherichia coli DE3 (BL21(DE3)). The following applies: at least 95% growth inhibition, nine log2 dilutions, triplicate, MH II, 48 h.
Protocol: (§1) Cryo-conserved cultures (Table 3) were transferred with a sterile inoculation loop to tryptic soy agar (TSA) plates (Carl Roth) sealed with Parafilm (BEMIS, Neenah, WI, USA), and were incubated for 1–2 days at 37 °C depending on growth rates. Plates were then stored at 4 °C. For each of the three replicates, single colonies were picked with a sterile pipette tip, transferred into 2–3 mL Mueller-Hinton II (MH II) medium (BD, Heidelberg, Germany) and cultivated for ~24 h in unsealed 15 mL reaction tubes at 37 °C, shaking at 180 rpm. […] We measured the optical density at 600 nm (OD600) by transferring 1 mL of bacterial suspension to a polystyrene cuvette (SARSTED, Nümbrecht, Germany) in an Ultrospec 10 photometer (Biochrome, Cambridge, UK). […]
(§2) The experiments were carried out in 96-multiwell plates with a final volume of 100 µL per well (50 µL of bacterial suspension; 50 µL of testing peptide with a final concentration of 1.9% DMSO). […] The OD600 was measured after 0, 24, and 48 h using a BioTek Eon microplate reader and Gen5 v2.09. One experiment was carried out with automatic OD600 measurement every 20 min with a prior 30 s double orbital rotation at 237 rpm with overall incubation at 37 °C for 60 h in the microplate reader. […]
For data set [12], the system named is Staphylococcus aureus (DSM 2569). The following applies: at least 95% growth inhibition, nine log2 dilutions, triplicate, MH II, 48 h.
Protocol: as §1, §2
Data set [13] concerns Staphylococcus epidermidis (ATCC 35984; DSM 28319). The following applies: at least 95% growth inhibition, nine log2 dilutions, triplicate, MH II, 48 h.
Protocol: as §1, §2
Data set [14] deals with Micrococcus luteus (DSM 20030). The following applies: at least 95% growth inhibition, nine log2 dilutions, triplicate, MH II, 48 h.
Protocol: as §1, §2
Data set [15] has as its system Influenza A/Hessen/1/03 (H3N2) in MDCK II cells. The data set is classed as cell-based, influenza A virus. Conditions: 100 µM peptides, 48 h.
Data set [16] has as its system Influenza A/Hamburg/5/09 (H1N1) in MDCK II cells. The data set is classed as cell-based, influenza A virus. Conditions: 100 µM peptides, 48 h.
Data set [17] has as its system Influenza B/Malaysia/2506/04 (Victoria lineage) in MDCK II cells. The format is cell-based, influenza B virus. The following applies: B/Mal, 100 µM peptides, 48 h.
Data set [18] concerns Influenza B/Massachusetts/71 (Yamagata lineage) in MDCK II cells. The data set is classed as cell-based, influenza B virus. Conditions: B/Mass, 100 µM peptides, 48 h.
For data set [19], the system named is larvae of the greater wax moth (Galleria mellonella). Briefly: Insecticidal activity, injection into larvae. The format is in vivo. The following applies: G. mellonella larvae, injection of 5 µL of 10 mM stock in DMSO/water, at least 72 h, 10 specimens.
In data set [20] the test system is Escherichia coli, Staphylococcus aureus, Staphylococcus epidermidis, Pseudomonas aeruginosa (strains 50071 and 1117), Micrococcus luteus, Listeria …. Kind of data set: Antibacterial activity, statements for the whole panel of seven strains. The following applies: 100 µM, after 48 h, MH II medium, 37 °C, OD600, triplicate. The format is cell-based.

With INPKLWLKLF-NH2 [U-MYRTX-Mrug5a], the MBC in data set [1] is listed as 50 µM; in data set [2] it was 50 µM; in [3], 6.25 µM; in [4] it was 50 µM. Also, the “Cytotoxicity (cell viability), in words” value in data set [5] is listed as “negligible cytotoxicity”. For the same substance, the Inhibition of growth is given as 97% in data set [6]; 96% in data set [7]; 97% in [8]; 89% in [9]; 81% in data set [10]. For the same substance, the MIC was 50 µM in data set [11], 100 µM in data set [12], 50 µM in data set [13] and 6.25 µM in data set [14].
As to “INPKLLESL-NH2 (C-terminus assumed) [U-MYRTX-Mrug5b]”, the “Normalized to Aprotinin =1 (protection)” value is on record as 0.06533 in data set [15] (replicate 1); 0.04634 in data set [15] (replicate 2); 0.07887 in [15] (replicate 3); 0.02999 in data set [16] (replicate 1); 0.0228 in data set [16] (replicate 2); 0.007801 in data set [16] (replicate 3). The “Normalized to Aprotinin =1 (protection)” value is 0.03907 in data set [17] (replicate 1); 0.06268 in data set [17] (replicate 2); 0.0833 in data set [17] (replicate 3); 0.0139 in [18] (replicate 1); 0.008064 in [18] (replicate 2); 0.0246 in data set [18] (replicate 3). In data set [19], this substance showed an Injected larvae surviving of 80%. Also, the “Inhibition of bacterial growth, in words” value in [20] is “no significant inhibition of bacterial growth”.

As usually defined, the MBC is the smallest concentration meeting the test's criterion for killing. A higher MBC goes with weaker bactericidal potency. One may read the Inhibition of growth as the drop in the measured response relative to a control, in per cent. Lower therefore signals a weak effect. Broadly, the MIC is the lowest concentration that inhibits growth of the organism.
